Results on 8 sequences are retold here after patent US20260144862A1, “MATERIALS AND METHODS TO TREAT EPSTEIN-BARR VIRUS (EBV) AND EBV-INDUCED DISEASES” (Medizinische Universität Wien, priority 2022, published 2026).

Assay [1] has as its target T1, HLA-E (Homo sapiens, UniProt P13747).
T1 construct: expressed in transfected cells; host or cells: mouse lymphoma cell line RMA-S/HLA-E/LFA-3, a gift from Chiara Romagnani, DRFZ Berlin
Nature of the assay: HLA-E stabilization by UL40 peptides on HLA-E-expressing RMA-S cells. Particulars: for Interpretation: HLA-E binding class of UL40 variant; for Mean MFI: HLA-E expression on the cell surface of RMA-S cells incubated with UL40 peptide; for HLA-E Upregulation: HLA-E-expressing RMA-S cells incubated with UL40 peptide. The format is cell-based. From the text:
Functionally, the expansion of NKG2C^+ NK cells in response to HCMV infections depends on a highly polymorphic HCMV UL40-encoded peptide in the respective infecting HCMV variant, which upregulates the NKG2C ligand HLA-E on the surface of HCMV-infected cells^52. […] HCMV variants were obtained from all 145 HCMV-seropositive MS patients during an episode of HCMV reactivation between EBV seroconversion and MS diagnosis, as well as from all HCMV seropositive EBNA^high (N=80) and EBNA^low (N=85) controls in any of the serum samples collected from the individuals over time. […] Therefore, we incubated HLA-E-expressing RMA-S cells with each of the 18 UL40 peptides and measured HLA-E expression on the cell surface.

For another assay, the system named is NKG2C+ NK cells. Nature of the assay: NKG2C+ NK cell response elicited by UL40 peptides. Details: species or system human. To be noted: UL40 peptide variant encoded by infecting HCMV isolate.
In a further assay the test system is EBV B95-8 isolate. The assay is described as follows: Virus (EBV) dissemination assay in K562-CR2-HLA-E cells. Type of assay: cell-based, Epstein-Barr virus. To be noted: for viral spread (BZLF1+ K562-CR2-HLA-E cells); effect of peptide on NKG2A+ NK or NKG2A+ CD8+ T cell mediated prevention of the viral spread: 300 μM LMP-1 peptide, 2-14 days of co-culture; for inhibition of NKG2A+ CD8+ T cells in EBV-dissemination assay (granzyme B-expressing cells) / inhibition of NKG2A+ NK cells in EBV-dissemination assay (granzyme B-expressing cells): peptide-pulsed K562-CR2-HLA-E*0103/0103 and K562-CR2-HLA-E*0101/0101 cells; for inhibition of NKG2A+ CD8+ T cells in EBV-dissemination assay (granzyme B-expressing cells): sorted NKG2A+ CD8+ T cells; for inhibition of NKG2A+ NK cells in EBV-dissemination assay (granzyme B-expressing cells): sorted NKG2A+ NK cells. On the procedure: For the virus dissemination assays, the marmoset B-lymphoblastoid cell line B95-8 was cultured in RPM1 1640 medium supplemented with 20 mM glutamine, 50 µg/ml gentamicin, 0.2 µg/ml amphotericin B and 10% FCS (Thermo-Scientific). Cells were then cultured in the presence of […] (Biomol) for two weeks. EBV was harvested from the supernatant and enriched by ultracentrifugation (30000 U/min, 90 min, 10° C.). The virus stocks were stored at −80° C. in RPMI 1640 medium+10% FCS+10% DMSO (all: Thermo-Scientific). The multiplicity of infection (MOI) of the viral stocks was determined on K562-CR2-HLA-E*0101/0101 and K562-CR2-HLA-E*0103/0103 cells by flow-cytometry.
RMA-S/HLA-E/LFA-3 cells (kindly provided by Chiara Romagnani, DRFZ, Berlin) were maintained in RPMI-1640+20 mM glutamine+10% FCS+20 μM β-mercaptoethanol+100 U/ml penicillin-streptomycin (all Thermo Fisher)+400 μg/ml hygromycin B+1 mg/ml G418 (both InvivoGen). 2×10^6 RMA-S/LFA3/HLA-E cells were incubated for 16 h at 37° C., 5% CO2, with 300 μM of respective peptides (Peptides&Elephants) in 1 ml serum-free OptiMEM (Thermo-Fisher). Cells were afterwards inactivated using 20 μg/mL Mitomycin C (Sigma Aldrich) at 37° C. for 30 minutes. Peptide pulsed RMA-S/LFA3/HLA-E cells were co-cultured with […] CFSE (Thermo-Fisher) stained CD56^+ or CD8^+ MACS-enriched cells for 7 days in RPMI+10% FCS. Proliferating (CFSE^low) NKG2A^+CD56^+ NK cells, NKG2A^+ CD8^+ T cells or […]-specific, HLA-E-restricted NKG2A^+ or NKG2A^− T cells were then sorted by FACS as described below.
Fresh K562-CR2-HLA-E*0101/0101 and K562-CR2-HLA-E*0103/0103 cells were then inactivated using 20 μg/mL Mitomycin C at 37° C. for 30 minutes and then infected with the EBV B95-8 isolate (MOI=1) for 24 h. The infected cells were then co-cultured together with the sorted NKG2A^+ CD56^+ NK cells, NKG2A^+ CD8^+ T cells or […]-specific, HLA-E-restricted NKG2A^+ or NKG2A^− T cells (E:T, 1:2). In some experiments, 300 μM of respective peptides was also added. At indicated time points, the cells were harvested and analyzed by flow-cytometry, as described below.

The subject of assay [2] is HLA-E. Nature of the assay: HLA-E stabilization assay on peptide-pulsed K562-HLA-E cells. To be noted: K562-HLA-E*0103/0103 or K562-HLA-E*0101/0101 cells, 300 μM peptide, 16 h, flow-cytometry.
Protocol: HLA-E surface stabilization was induced as previously described^32. In brief, TAP-incompetent K562-HLA-E*0101/0101 and K562-HLA-E*0103/0103 (kindly provided by Thorbald van Hall, Leiden University Medical Center) were cultured in Iscove's Modified Dulbecco's Medium (IMDM)+10% FCS (both: Thermo-Scientific). […] (positive control), BZLF1-derived [sequence] or LMP-1 peptides (Peptides&Elephants) in 1 ml Opti-MEM (Thermo-Fisher) for 16 h at 37° C. Peptide-pulsed cells were either stained for HLA-E surface expression by flow-cytometry analysis or washed with complete medium and used for in vitro stimulations.
The following conjugated mouse anti-human mAB were used for flow-cytometry: BV421-CD56 (NCAM 16.2), BV421-CD8 (RPA-T8), BV510-NKG2A (131411), APC/H7-CD107a (H4A3), APC/CD21 (all: BD), APC-CD3 (UCHT1), APC/Cy7-IFNγ (B27), APC-HLA/E (all: Biolegend), APC-Cy7-Granzyme B (Abcore), BZLF1-Alexa488 (Novusbio). Dead cells were identified using LIVE/DEAD Fixable Green Dead Cell Stain Kit (Thermo-Scientific) or 7-Aminoactinomycin D (7-AAD, Invitrogen). Flow-cytometry analysis was performed on a FACSCanto2 platform and FACSDiva Version 10.7.2 (BD).
The test system of assay [3] is HLA-E. Nature of the assay: LMP-1 dependent HLA-E up-regulation assay in GlialCAM370-389-specific B-cells. To be noted: B-cells from 24 healthy blood donors transfected with LMP-1 peptide, 16 h. Type of assay: cell-based, human. As to the method: (§1) For the HLA-E stabilization experiments, 5×10^6 viable CFSE stained PBMCs were cultured in RPMI-1640+10% FCS in the presence of 10 μg GlialCAM370-389 ([…]), 10 μg of random 20 amino acid peptides (negative control, GenScript) or without peptides (non-peptide control) and 10 ng/mL IL-2 (Peprotech) at 37° C. Every three days, fresh 10 μg GlialCAM370-389 and 10 ng/mL IL-2 were added. After 7 days of co-culture, GlialCAM370-389-specific B-cells were sorted. 1×10^5 GlialCAM370-389-specific B-cells were then individually transfected with the indicated concentrations of the LMP-1 peptides (Peptides&Elephants) using the Pierce Protein Transfection Reagent according to the manufacturer's instructions (Thermo Fisher). After 16 h, the cells were either fixed and analyzed for HLA-E expression by flow cytometry, as described below, or washed once with Opti-MEM I Reduced Serum Medium (Gibco) and subsequently used in NKG2A^+ NK cell inhibition experiments. For the NKG2A^+ NK cell inhibition experiments, sorted NKG2A^+NKG2C^−NKG2D^− NK cells from 24 healthy blood donors were cultured together with peptide-pulsed GlialCAM370-389 B-cells (E:T, 1:1) for 6 h at 37° C. After co-cultivation, the supernatant was removed, cleared by centrifugation (1000×g, 5 min), and analyzed using IFNγ ELISA according to the manufacturer's recommendations (Thermo Fisher).

The subject of the next assay is NKG2A+ NK cells. The assay is described as follows: NKG2A+ NK cell inhibition assay. The format is cell-based, human. Particulars: K562-HLA-E*0101/0101 or K562-HLA-E*0103/0103 target cells pulsed with 300 μM LMP-1 peptide. On the procedure:
For the NKG2A^+ NK cell inhibition experiments, MACS-enriched CD56^+ cells were quickly thawed at 37° C., washed, and pre-activated overnight in RPMI, 10% FCS, 1% L-glutamine (all: Thermo Fisher Scientific), 10 ng/ml IL-12 (PeproTec) and 100 ng/ml IL-18 (Biozym Scientific) at 37° C. CD56^+ NK cells were then harvested by centrifugation at 400×g for 5 minutes and washed once with Opti-MVEM I Reduced Serum Medium (Gibco). The NK cells were then cultured together with peptide pulsed K562-HLA-E*0101/0101 or K562-HLA-E*0103/0103 cells (E:T, 1:2) and 5 μL mouse anti-human CD107-APC-H7 (BD) for 6 h. NK cells were then harvested, fixed with the FIX & PERM Cell Fixation & Cell Permeabilization Kit (Thermo-Scientific) and analysed by flow-cytometry, as described below.

The next assay has as its system NKG2A+ CD8+ T cells. The assay is described as follows: NKG2A+ CD8+ T cell inhibition assay. Type of assay: cell-based, human. Particulars: K562-HLA-E*0101/0101 or K562-HLA-E*0103/0103 target cells pulsed with 300 μM peptide. On the procedure:
For the CD8^+ T cells experiments, CD8^+ MACS-enriched cells were quickly thawed at 37° C., washed once, and pre-activated overnight in RPMI, 10% FCS, 1% L-glutamine and 20 ng/ml IL-2 (PeproTec) at 37° C. CD8^+ T cells were then harvested by centrifugation (400×g, 5 min) and then washed once with Opti-MEM I Reduced Serum Medium. CD8^+ T cells were then cultured together with peptide pulsed K562-HLA-E*0101/0101 or K562-HLA-E*0103/0103 cells (E:T, 1:2), 1× monensin and 1× brefeldin A for 6 h. […] were harvested, fixed with the FIX & PERM Cell Fixation & Cell Permeabilization Kit and analysed by flow-cytometry, as described below.

Assay [4] deals with NKG2A+ NKG2C−NKG2D− NK cells. Nature of the assay: NKG2A+ NK cell inhibition by LMP-1 peptide-transfected GlialCAM370-389-specific B-cells (IFNγ ELISA). Type of assay: cell-based, human. Particulars: LMP-1 peptide-pulsed GlialCAM370-389-specific B-cells, E:T 1:1, 6 h. On the procedure:
as §1
(In an ELISA, binding on a coated surface is turned into a signal by an enzyme label.)

T1 sequence (P61769 21-119): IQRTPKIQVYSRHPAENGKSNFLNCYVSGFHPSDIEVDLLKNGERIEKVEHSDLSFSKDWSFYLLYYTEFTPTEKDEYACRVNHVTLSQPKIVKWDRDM
T1 sequence (P13747 22-358): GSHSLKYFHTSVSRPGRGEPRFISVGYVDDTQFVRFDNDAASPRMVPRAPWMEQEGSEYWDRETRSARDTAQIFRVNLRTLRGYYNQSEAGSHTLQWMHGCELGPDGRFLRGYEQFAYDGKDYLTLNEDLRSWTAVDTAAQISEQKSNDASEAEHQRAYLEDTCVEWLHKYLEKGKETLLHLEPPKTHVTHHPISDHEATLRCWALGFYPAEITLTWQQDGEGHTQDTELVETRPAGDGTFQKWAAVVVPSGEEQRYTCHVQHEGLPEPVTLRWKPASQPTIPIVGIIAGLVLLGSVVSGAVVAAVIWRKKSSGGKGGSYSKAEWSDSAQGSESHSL

As to VMAPRTLVL [HCMV UL40 peptide variant], in the assay with HLA-E [1], the Interpretation entry is “High Binding (↑↑) (a high-level of HLA-E stabilization, as defined by an HLA-E upregulation of >99.5%)” and the “Mean MFI” value was found to be 3782. The “NKG2C+ NK cell response” value in the assay on NKG2C+ NK cells was “more potent NKG2C^+ NK cell response”.

Regarding GSDPHLPTL, the “viral spread (BZLF1+ K562-CR2-HLA-E cells); effect of peptide on NKG2A+ NK or NKG2A+ CD8+ T cell mediated prevention of the viral spread” value (“viral spread” below) in the assay with EBV B95-8 isolate was “no inhibitory effect”. The “HLA-E upregulation / stabilization (surface expression of HLA-E)” value in the assay with HLA-E [2] is recorded as “neither significant HLA-E upregulation”.

In the case of VMAPRTLLL [HCMV UL40 peptide variant], in the assay with HLA-E [1], the Interpretation result is reported as “High Binding (↑↑) (a high-level of HLA-E stabilization, as defined by an HLA-E upregulation of >99.5%)”; the “Mean MFI” value was determined as 3776; the “HLA-E Upregulation” value was 99.5%. The “NKG2C+ NK cell response” value with NKG2C+ NK cells was “more potent NKG2C^+ NK cell response”.

As to “GTDPHLPTL [only rarely detected EBV LMP-1 peptide variant]”, in the assay with EBV B95-8 isolate, the “viral spread” value was “increased viral spread”, the “inhibition of NKG2A+ CD8+ T cells in EBV-dissemination assay (granzyme B-expressing cells)” value was “caused the inhibition” and the “inhibition of NKG2A+ NK cells in EBV-dissemination assay (granzyme B-expressing cells)” value is listed as “caused the inhibition”. For the same sequence, the “upregulation of HLA-E on the surface of GlialCAM370-389-specific B-cells” value (from here on “upregulation of HLA-E”) in the assay with HLA-E [3] is given as “stable upregulation of HLA-E”.

On to GGDPHLPPL, for which, in the assay on EBV B95-8 isolate, the “viral spread” value was “no inhibitory effect”. In the assay with HLA-E [2], the “HLA-E upregulation / stabilization (surface expression of HLA-E)” value is “neither significant HLA-E upregulation”.

Regarding VMAPRTLFL [HCMV UL40 peptide variant], in the assay with HLA-E [1], the Interpretation result is recorded as “High Binding (↑↑) (a high-level of HLA-E stabilization, as defined by an HLA-E upregulation of >99.5%)”; the “Mean MFI” value is given as 3797; the “HLA-E Upregulation” value turned out to be 100.0%. The “NKG2C+ NK cell response” value with NKG2C+ NK cells is reported as “more potent NKG2C^+ NK cell response”.

For the sequence GGDPPLPTL [EBV LMP-1 peptide variant], the “inhibition of NKG2A+ NK cells” value in the assay on NKG2A+ NK cells is recorded as “potent inhibition”. Moreover, in the assay on NKG2A+ CD8+ T cells, the “inhibition of NKG2A+ CD8+ T cells (IFNγ-expressing NKG2A+ CD8+ T cells)” value is on record as “potent inhibition”. Further, in the assay on EBV B95-8 isolate, the “viral spread” value is “increased viral spread”, the “inhibition of NKG2A+ CD8+ T cells in EBV-dissemination assay (granzyme B-expressing cells)” value is reported as “caused the inhibition” and the “inhibition of NKG2A+ NK cells in EBV-dissemination assay (granzyme B-expressing cells)” value is recorded as “caused the inhibition”. Also, in the assay with HLA-E [3], the “upregulation of HLA-E” value was “stable upregulation of HLA-E”. Also, the “inhibition of NKG2A+ cells (IFNγ concentration in the supernatant)” value in assay [4] is “potently inhibited”.

In the case of GGDPHLPTL [EBV LMP-1 peptide variant], the “inhibition of NKG2A+ NK cells” value in the assay on NKG2A+ NK cells was “potent inhibition”. The “inhibition of NKG2A+ CD8+ T cells (IFNγ-expressing NKG2A+ CD8+ T cells)” value in the assay on NKG2A+ CD8+ T cells is on record as “potent inhibition”. In the assay with EBV B95-8 isolate, the “viral spread” value is reported as “increased viral spread”, the “inhibition of NKG2A+ CD8+ T cells in EBV-dissemination assay (granzyme B-expressing cells)” value is recorded as “caused the inhibition” and the “inhibition of NKG2A+ NK cells in EBV-dissemination assay (granzyme B-expressing cells)” value was “caused the inhibition”. Moreover, in the assay on HLA-E [3], the “upregulation of HLA-E” value is on record as “stable upregulation of HLA-E”. The “inhibition of NKG2A+ cells (IFNγ concentration in the supernatant)” value in assay [4] is “potently inhibited”.
